{"source": "patent US20060084789A1", "about": "“Immunotherapeutic and immunoprphylactic reagents” (priority 2002, published 2006)", "assay_type_in_all_cases": "cell-based, human", "key": {"[1]": {"test_system": "IFN-γ production by RGP-specific TCL", "assay": "IFN-γ detection in culture supernatants by sandwich ELISA", "conditions": "supernatant at 48 h, UD undetectable, limit of detection 2 pg/ml", "description": "(§1) Cytokine Detection in Culture Supernatants\n(§2) Supernatants of triplicate cultures were harvested and pooled from T cell proliferation assay cultures at 48 hours for the detection of IL-5 and IFN-γ production by sandwich ELISA. Briefly white Maxisorp (NUNC, Roskilde, Denmark) ELISA plates were coated with capture mAb (anti-IL-5, Pharmingen, San Diego, Calif., USA; anti-IFN-γ, Endogen, Woburn, Mass. USA) overnight at 4° C. Plates were then washed and wells blocked with 1% Bovine Serum Albumin/PBS for 1 hour at room temperature. Following washing, test samples (neat) and serial dilutions of recombinant human IL-5 (Pharmingen, USA) or IFN-γ (Endogen, USA) (for the construction of standard curves) were added and incubated overnight at 4° C. Following washing, plates were incubated with biotinylated detecting mAb (anti-IL-5, Pharmingen, USA; […], Endogen, USA) for 1 hour at room temperature. Plates were then washed and incubated with streptavidin-peroxidase (Amersham, Piscataway, N.J., USA) for 30 minutes at room temperature. Following washing, a chemiluminescent substrate (Du Pont, Wilmington, Del., USA) was added to each well and plates read in a Lumicount microplate Glow Luminometer (Packard Instrument Company, Meriden, Conn., USA), 0.5 seconds/well, automatic sensitivity setting. Standard curve construction and determination of test sample cytokine levels were performed using Packard I-smart software. The limits of detection for IL-5 and IFN-γ were 10 pg/ml and 2 pg/ml respectively."}, "[2]": {"test_system": "RGP-specific TCL", "assay": "TCL proliferation assay (3H-thymidine incorporation, stimulation index)", "conditions": "for Proliferative response, stimulation index: peptides 10 μg/ml", "description": "Generation of Short-Term RGP-Specific TCL\nPBMC were cultured in 24-well plates (Costar, Mass., USA) at 2.5×10^6 cells/well with RGP extract at a concentration of 25 or 50 μg/ml in RPMI 1640 medium (Gibco BRL, NY, USA) supplemented with 2 mM GlutaMAX I (Gibco BRL), 0.05 mg/ml gentamicin (David Bull Laboratories, Mulgrave, Victoria, Australia) and 5% heat-inactivated hunan AB^+ serum (Sigma, Mo., USA) for 7 days at 37° C. in a 5% CO2 humidified incubator. At day 7, cells were washed once and restimulated in 24-well plates at 5×10^5 cells/well width 25 or 50 μg/ml of RGP extract in the presence of 5×10^5 cells/well irradiated (3000 rads) autologous PBMC as a source of antigen presenting cells (APC). At day 2 following restimulation, 10 U/ml of Lymphocult T-LF (LC; Biotest, Germany) was added as a source of IL-2 and at day 4, 1 ml of culture medium was removed and replaced with fresh medium and 10 U/ml of LC. […] In all experiments T cells were rested for 6 to 7 days after the last addition of antigen and APC before testing.\nT cells (5×10^4/well) were cultured in 96-well U bottom plates with either RGP extract at concentrations ranging from 25 to 200 μg/ml, purified Lol p 1 (0.12 to 2 μg/ml) or Lol p 5 (0.1 to 10 μg/ml), or Lol p 1 or Lol p 5 peptides (10 μg/ml), or medium alone (to determine background levels of proliferation), in the presence of washed autologous irradiated (3000 rads) PBMC (5×10^4/well). […] Cultures were incubated for 3 days, pulsed for the last 16 hours with ^3H-thymidine (1 μCi/well) and harvested onto glass fibre filters. ^3H-thymidine incorporation was measured by liquid scintillation spectroscopy and the mean counts per minute (cpm) for triplicate cultures was determined. Responses were considered positive if the stimulation index (SI, cpm of antigen-stimulated T cells divided by cpm of unstimulated T cells) was ≧2.5. Where several concentrations of allergen were tested (i.e., RGP, Lol p 1 and Lol p 5), values corresponding to the highest proliferation are shown."}, "[3]": {"test_system": "IL-5 production by RGP-specific TCL", "assay": "IL-5 detection in culture supernatants by sandwich ELISA", "conditions": "supernatant at 48 h, UD undetectable, limit of detection 10 pg/ml", "description": "as §1, §2"}, "[4]": {"conditions": "Subject 15 TCL, Lol p 1 peptides"}, "[5]": {"conditions": "Subject 23 TCL, Lol p 1 peptides"}, "[6]": {"conditions": "Subject 4 TCL, Lol p 1 series (Table 3), RGP and Lol p 1 maximal response"}, "[7]": {"conditions": "Subject 15 TCL, Lol p 1 series (Table 3), RGP and Lol p 1 maximal response"}, "[8]": {"conditions": "Subject 7 TCL, Lol p 1 series (Table 3), RGP and Lol p 1 maximal response"}, "[9]": {"conditions": "Subject 20 TCL, Lol p 1 peptides"}, "[10]": {"conditions": "Subject 2 TCL, Lol p 5 peptides"}}, "data": [{"substance": "KGKDKWIELKESWGAVWRID (Lolium perenne) [Lol p 1 peptide 181-200]", "values": [{"measurement": "IFN-γ, proliferation inducing peptides", "setting": "[1]; [4]", "value": 56.6, "unit": "pg/mL"}, {"measurement": "IFN-γ, proliferation inducing peptides", "setting": "[1]; [5]", "value": 11.7, "unit": "pg/mL"}, {"measurement": "Proliferative response, stimulation index", "setting": "[2]; [6]", "value": 4.5}, {"measurement": "Proliferative response, stimulation index", "setting": "[2]; Subject 10 TCL, Lol p 1 series (Table 3), RGP and Lol p 1 maximal response", "value": 2.6}, {"measurement": "Proliferative response, stimulation index", "setting": "[2]; Subject 11 TCL, Lol p 1 series (Table 3), RGP and Lol p 1 maximal response", "value": 7.3}, {"measurement": "Proliferative response, stimulation index", "setting": "[2]; [7]", "value": 5.8}, {"measurement": "Proliferative response, stimulation index", "setting": "[2]; Subject 18 TCL, Lol p 1 series (Table 3), RGP and Lol p 1 maximal response", "value": 2.6}, {"measurement": "Proliferative response, stimulation index", "setting": "[2]; Subject 23 TCL, Lol p 1 series (Table 3), RGP and Lol p 1 maximal response", "value": 6.2}, {"measurement": "IL-5, proliferation inducing peptides", "setting": "[3]; [4]", "value": 13.3, "unit": "pg/mL"}, {"measurement": "IL-5, proliferation inducing peptides", "setting": "[3]; [5]", "value": 25.1, "unit": "pg/mL"}]}, {"substance": "LDAKSTWYGKPTGAGPKDNG (Lolium perenne) [Lol p 1 peptide 19-38]", "values": [{"measurement": "IFN-γ, proliferation inducing peptides", "setting": "[1]; Subject 3 TCL, Lol p 1 peptides", "value": 20.9, "unit": "pg/mL"}, {"measurement": "IFN-γ, proliferation inducing peptides", "setting": "[1]; [4]", "value": 204.1, "unit": "pg/mL"}, {"measurement": "IFN-γ, proliferation inducing peptides", "setting": "[1]; Subject 19 TCL, Lol p 1 peptides", "value": 2.8, "unit": "pg/mL"}, {"measurement": "responder frequency among Lol p 1 peptide-responsive donors", "setting": "[2]; Lol p 1 peptide-responsive RGP-specific TCL, SI ≥2.5 positive, listed as Lol p 1 (19-3 8)", "value": 46, "unit": "%"}, {"measurement": "Proliferative response, stimulation index", "setting": "[2]; Subject 2 TCL, Lol p 1 series (Table 3), RGP and Lol p 1 maximal response", "value": 5.2}, {"measurement": "Proliferative response, stimulation index", "setting": "[2]; Subject 3 TCL, Lol p 1 series (Table 3), RGP and Lol p 1 maximal response", "value": 3.3}, {"measurement": "Proliferative response, stimulation index", "setting": "[2]; [6]", "value": 12.3}, {"measurement": "Proliferative response, stimulation index", "setting": "[2]; Subject 6 TCL, Lol p 1 series (Table 3), RGP and Lol p 1 maximal response", "value": 2.7}, {"measurement": "Proliferative response, stimulation index", "setting": "[2]; [8]", "value": 3.2}, {"measurement": "Proliferative response, stimulation index", "setting": "[2]; Subject 8 TCL, Lol p 1 series (Table 3), RGP and Lol p 1 maximal response", "value": 3.8}, {"measurement": "Proliferative response, stimulation index", "setting": "[2]; Subject 12 TCL, Lol p 1 series (Table 3), RGP and Lol p 1 maximal response", "value": 7.5}, {"measurement": "Proliferative response, stimulation index", "setting": "[2]; [7]", "value": 10.5}, {"measurement": "Proliferative response, stimulation index", "setting": "[2]; Subject 17 TCL, Lol p 1 series (Table 3), RGP and Lol p 1 maximal response", "value": 5.3}, {"measurement": "Proliferative response, stimulation index", "setting": "[2]; Subject 19 TCL, Lol p 1 series (Table 3), RGP and Lol p 1 maximal response", "value": 10.3}, {"measurement": "Proliferative response, stimulation index", "setting": "[2]; Subject 21 TCL, Lol p 1 series (Table 3), RGP and Lol p 1 maximal response", "value": 3.8}, {"measurement": "IL-5, proliferation inducing peptides", "setting": "[3]; [4]", "value": 182.7, "unit": "pg/mL"}]}, {"substance": "Lol p 1 peptide 37-56: synthetic 20-mer, amino acids 37-56 of Lol p 1A (SEQ ID NO:1) (NCGACGYKDVDKAPFNGMTG; Lolium perenne)", "values": [{"measurement": "IFN-γ, proliferation inducing peptides", "setting": "[1]; [9]", "value": 11.1, "unit": "pg/mL"}, {"measurement": "Proliferative response, stimulation index", "setting": "[2]; [6]", "value": 2.5}, {"measurement": "Proliferative response, stimulation index", "setting": "[2]; Subject 20 TCL, Lol p 1 series (Table 3), RGP and Lol p 1 maximal response", "value": 2.6}, {"measurement": "IL-5, proliferation inducing peptides", "setting": "[3]; [9]", "value": 46.9, "unit": "pg/mL"}]}, {"substance": "Lol p 1 peptide 64-83: synthetic 20-mer, amino acids 64-83 of Lol p 1A (SEQ ID NO:1) (KDGRGCGSCFEIKCTKPESC; Lolium perenne)", "values": [{"measurement": "IFN-γ, proliferation inducing peptides", "setting": "[1]; [4]", "value": 38.8, "unit": "pg/mL"}, {"measurement": "Proliferative response, stimulation index", "setting": "[2]; Subject 1 TCL, Lol p 1 series (Table 3), RGP and Lol p 1 maximal response", "value": 7.2}, {"measurement": "Proliferative response, stimulation index", "setting": "[2]; [8]", "value": 3.5}, {"measurement": "Proliferative response, stimulation index", "setting": "[2]; [7]", "value": 3.5}, {"measurement": "IL-5, proliferation inducing peptides", "setting": "[3]; [4]", "value": 26.5, "unit": "pg/mL"}]}, {"substance": "Lol p 5 peptide 190-209: synthetic 20-mer, amino acids 190-209 of Lol p 5A (SEQ ID NO:2) (GAYETYKFIPSLEAAVKQAY; Lolium perenne)", "values": [{"measurement": "IFN-γ, proliferation inducing peptides", "setting": "[1]; [10]", "value": 7.8, "unit": "pg/mL"}, {"measurement": "Proliferative response, stimulation index", "setting": "[2]; Subject 2 TCL, Lol p 5 series (Table 4), RGP and Lol p 5 maximal response", "value": 3.0}, {"measurement": "Proliferative response, stimulation index", "setting": "[2]; Subject 4 TCL, Lol p 5 series (Table 4), RGP and Lol p 5 maximal response", "value": 5.1}, {"measurement": "Proliferative response, stimulation index", "setting": "[2]; Subject 11 TCL, Lol p 5 series (Table 4), RGP and Lol p 5 maximal response", "value": 4.0}, {"measurement": "Proliferative response, stimulation index", "setting": "[2]; Subject 29 TCL, Lol p 5 series (Table 4), RGP and Lol p 5 maximal response", "value": 3.1}, {"measurement": "IL-5, proliferation inducing peptides", "setting": "[3]; [10]", "value": 518.1, "unit": "pg/mL"}]}]}
